From patent US9302999B2, “Substituted triazoles as herbicides” (E. I. DU PONT DE NEMOURS AND COMPANY, priority 2012, dated 2016)

Key:
Format in all cases: in vivo
[1] = test system: sedge, umbrella (small-flower umbrella sedge, Cyperus difformis); experiment: Test C flooded paddy test: sedge, umbrella; conditions: scale 0 to 100 (0 no effect, 100 complete control)
How it was run: (§1)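 Plants at 2-leaf stage in pots flooded 3 cm above soil; compounds applied directly into the paddy water, depth maintained. Visual rating against controls after 13–15 days in greenhouse, scale 0 (no effect) to 100 (complete control).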

[2] = test system: barnyardgrass (Echinochloa crus-galli); experiment: Test C flooded paddy test: barnyardgrass; conditions: scale 0 to 100 (0 no effect, 100 complete control)
How it was run: as §1

[3] = test system: wheat (Triticum aestivum); experiment: Test A pre-/postemergence: wheat
How it was run: (§2)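 Compounds, formulated with surfactant in non-phytotoxic solvent, were applied as a directed soil spray preemergence and as postemergence sprays to 2–10 cm, one- to two-leaf seedlings grown in loam soil blended with sand; visual injury, 0–100, assessed ~10 days post-treatment against untreated controls.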

[4] = test system: velvetleaf (Abutilon theophrasti); experiment: Test A pre-/postemergence: velvetleaf
How it was run: as §2

[5] = test system: crabgrass, large (large crabgrass, Digitaria sanguinalis); experiment: Test A pre-/postemergence: crabgrass, large
How it was run: as §2

[6] = test system: ducksalad (Heteranthera limosa); experiment: Test C flooded paddy test: ducksalad; conditions: scale 0 to 100 (0 no effect, 100 complete control)
How it was run: as §1

corn (Zea mays) = experiment: Test A pre-/postemergence: corn
How it was run: as §2

[7] = test system: barnyardgrass (Echinochloa crus-galli); experiment: Test A pre-/postemergence: barnyardgrass
How it was run: as §2

[8] = test system: pigweed (Amaranthus retroflexus); experiment: Test A pre-/postemergence: pigweed
How it was run: as §2

[9] = test system: foxtail, giant (giant foxtail, Setaria faberii); experiment: Test A pre-/postemergence: foxtail, giant
How it was run: as §2

[10] = test system: morningglory (Ipomoea spp.); experiment: Test A pre-/postemergence: morningglory
How it was run: as §2

rice (Oryza sativa) = experiment: Test C flooded paddy test: rice; conditions: scale 0 to 100 (0 no effect, 100 complete control)
How it was run: as §1

[11] = Flood (flooded paddy test), 62 g ai/ha, visual rating after 13 to 15 days
[12] = Flood (flooded paddy test), 125 g ai/ha, visual rating after 13 to 15 days
[13] = Flood (flooded paddy test), 250 g ai/ha, visual rating after 13 to 15 days
[14] = Postemergence, 125 g ai/ha, 0 to 100 scale, 0 is no effect, 100 is complete control
[15] = Postemergence, 500 g ai/ha, visual rating on 0 to 100 scale (0 no effect, 100 complete control), approximately ten days
[16] = Preemergence, 125 g ai/ha, 0 to 100 scale (0 no effect, 100 complete control)
[17] = Preemergence, 500 g ai/ha, 0 to 100 scale, 0 is no effect, 100 is complete control
[18] = Postemergence, 1000 g ai/ha, visual rating on 0 to 100 scale (0 no effect, 100 complete control), approximately ten days
[19] = Preemergence, 1000 g ai/ha, 0 to 100 scale, 0 is no effect, 100 is complete control

COc1nn(-c2ccc(C(F)(F)F)cc2)nc1Cn1cnc(C(F)(F)F)n1 [Compound 18]
10: Plant response rating, Morningglory [10, 16]
60: Crabgrass, Large plant response rating [5, 14] | Barnyardgrass plant response rating [7, 15]
0: Plant response rating, Sedge, Umbrella [1, 11] | Plant response rating, Sedge, Umbrella ([1]; Flood, 31 g ai/ha) | Plant response rating, Barnyardgrass [2, 11] | Plant response rating, Barnyardgrass [2, 12] | Plant response rating, Barnyardgrass [2, 13] | Plant response rating, Barnyardgrass ([2]; Flood, 31 g ai/ha) | Plant response rating, Wheat [3, 16] | Plant response rating, Wheat [3, 17] | Plant response rating, Ducksalad [6, 11] | Plant response rating, Ducksalad [6, 12] | Plant response rating, Ducksalad [6, 13] | Plant response rating, Ducksalad ([6]; Flood, 31 g ai/ha) | Plant response rating, Corn (corn (Zea mays); [16]) | Plant response rating, Corn (corn (Zea mays); [17]) | Plant response rating, Rice (rice (Oryza sativa); [11]) | Plant response rating, Rice (rice (Oryza sativa); [12]) | Plant response rating, Rice (rice (Oryza sativa); [13]) | Plant response rating, Rice (rice (Oryza sativa); Flood, 31 g ai/ha)
50: Barnyardgrass plant response rating [7, 14] | Plant response rating, Morningglory [10, 17]
30: Wheat plant response rating [3, 15] | Plant response rating, Velvetleaf [4, 17] | Corn plant response rating (corn (Zea mays); [15]) | Plant response rating, Barnyardgrass [7, 17] | Foxtail, Giant plant response rating [9, 14]
70: Velvetleaf plant response rating [4, 14] | Foxtail, Giant plant response rating [9, 15]
90: Plant response rating, Crabgrass, Large [5, 16] | Plant response rating, Crabgrass, Large [5, 17] | Plant response rating, Foxtail, Giant [9, 17] | Morningglory plant response rating [10, 15]
80: Velvetleaf plant response rating [4, 15] | Crabgrass, Large plant response rating [5, 15] | Plant response rating, Pigweed [8, 16] | Plant response rating, Foxtail, Giant [9, 16] | Morningglory plant response rating [10, 14]
20: Wheat plant response rating [3, 14] | Plant response rating, Velvetleaf [4, 16] | Corn plant response rating (corn (Zea mays); [14]) | Plant response rating, Barnyardgrass [7, 16]
65: Plant response rating, Sedge, Umbrella [1, 13]
100: Pigweed plant response rating [8, 14] | Pigweed plant response rating [8, 15] | Plant response rating, Pigweed [8, 17]
40: Plant response rating, Sedge, Umbrella [1, 12]

Cc1nn(-c2ccc(C(F)(F)F)cc2)nc1Cn1ccc(C(F)(F)F)n1 [Compound 117]
65: Plant response rating, Sedge, Umbrella ([1]; Flood, 31 g ai/ha) | Plant response rating, Barnyardgrass [2, 12]
100: Velvetleaf plant response rating [4, 18] | Crabgrass, Large plant response rating [5, 19] | Barnyardgrass plant response rating [7, 19] | Pigweed plant response rating [8, 18] | Pigweed plant response rating [8, 19] | Foxtail, Giant plant response rating [9, 19]
10: Wheat plant response rating [3, 19]
30: Velvetleaf plant response rating [4, 19] | Plant response rating, Ducksalad ([6]; Flood, 31 g ai/ha)
50: Plant response rating, Barnyardgrass ([2]; Flood, 31 g ai/ha) | Plant response rating, Ducksalad ([6]; Flood, 62 g ai/ha) | Corn plant response rating (corn (Zea mays); [19])
15: Plant response rating, Rice (rice (Oryza sativa); Flood, 31 g ai/ha) | Plant response rating, Rice (rice (Oryza sativa); Flood, 62 g ai/ha)
85: Plant response rating, Sedge, Umbrella [1, 13] | Plant response rating, Ducksalad [6, 13]
70: Plant response rating, Sedge, Umbrella ([1]; Flood, 62 g ai/ha)
40: Corn plant response rating (corn (Zea mays); [18]) | Morningglory plant response rating [10, 19] | Plant response rating, Rice (rice (Oryza sativa); [13])
25: Plant response rating, Rice (rice (Oryza sativa); [12])
60: Plant response rating, Barnyardgrass ([2]; Flood, 62 g ai/ha)
90: Crabgrass, Large plant response rating [5, 18] | Foxtail, Giant plant response rating [9, 18] | Morningglory plant response rating [10, 18]
20: Wheat plant response rating [3, 18]
75: Plant response rating, Sedge, Umbrella [1, 12]
80: Plant response rating, Barnyardgrass [2, 13] | Plant response rating, Ducksalad [6, 12] | Barnyardgrass plant response rating [7, 18]

Cc1nn(-c2ccc(C(F)(F)F)cc2)nc1Oc1cccc(Cl)c1 [Compound 84]
50: Crabgrass, Large plant response rating [5, 15] | Plant response rating, Pigweed [8, 17]
90: Pigweed plant response rating [8, 15]
30: Corn plant response rating (corn (Zea mays); [15]) | Plant response rating, Foxtail, Giant [9, 17] | Morningglory plant response rating [10, 14] | Morningglory plant response rating [10, 15]
60: Plant response rating, Crabgrass, Large [5, 17]
10: Plant response rating, Barnyardgrass [2, 13] | Velvetleaf plant response rating [4, 14] | Crabgrass, Large plant response rating [5, 14] | Corn plant response rating (corn (Zea mays); [14]) | Barnyardgrass plant response rating [7, 15] | Foxtail, Giant plant response rating [9, 14]
0: Plant response rating, Sedge, Umbrella [1, 12] | Plant response rating, Sedge, Umbrella ([1]; Flood, 31 g ai/ha) | Plant response rating, Sedge, Umbrella ([1]; Flood, 62 g ai/ha) | Plant response rating, Barnyardgrass [2, 12] | Plant response rating, Barnyardgrass ([2]; Flood, 31 g ai/ha) | Plant response rating, Barnyardgrass ([2]; Flood, 62 g ai/ha) | Wheat plant response rating [3, 14] | Wheat plant response rating [3, 15] | Plant response rating, Wheat [3, 16] | Plant response rating, Wheat [3, 17] | Plant response rating, Velvetleaf [4, 16] | Plant response rating, Velvetleaf [4, 17] | Plant response rating, Crabgrass, Large [5, 16] | Plant response rating, Ducksalad [6, 12] | Plant response rating, Ducksalad ([6]; Flood, 31 g ai/ha) | Plant response rating, Ducksalad ([6]; Flood, 62 g ai/ha) | Plant response rating, Corn (corn (Zea mays); [16]) | Plant response rating, Corn (corn (Zea mays); [17]) | Barnyardgrass plant response rating [7, 14] | Plant response rating, Barnyardgrass [7, 16] | Plant response rating, Barnyardgrass [7, 17] | Plant response rating, Pigweed [8, 16] | Plant response rating, Foxtail, Giant [9, 16] | Plant response rating, Morningglory [10, 16] | Plant response rating, Morningglory [10, 17] | Plant response rating, Rice (rice (Oryza sativa); Flood, 31 g ai/ha) | Plant response rating, Rice (rice (Oryza sativa); Flood, 62 g ai/ha)
40: Plant response rating, Ducksalad [6, 13] | Pigweed plant response rating [8, 14]
20: Plant response rating, Sedge, Umbrella [1, 13] | Velvetleaf plant response rating [4, 15] | Foxtail, Giant plant response rating [9, 15] | Plant response rating, Rice (rice (Oryza sativa); [12]) | Plant response rating, Rice (rice (Oryza sativa); [13])
